Here are results for 30 molecules from PMC10714399, “Open Source Antibiotics: Simple Diarylimidazoles Are Potent against Methicillin-Resistant Staphylococcus aureus” (ACS Infectious Diseases, 2023).

Experiment [1] concerns Staphylococcus aureus NCTC 13373 (mecA-positive; methicillin-resistant). Put plainly: In vitro antibacterial activity, MIC (UCL School of Pharmacy assay), MRSA. It is filed as cell-based. To be noted: for MIC: Staphylococcus aureus. The protocol:
(§1) Staphylococcus aureus NCTC 13373 (mecA-positive; methicillin-resistant, NCTC 13373) was supplied by the National Collection of Type Cultures (NCTC), Public Health England, United Kingdom. Other organisms, S. aureus ATCC 25923 (methicillin-susceptible) and Enterococcus faecalis ATCC 51299 (vanA-positive; vancomycin-resistant), were obtained from the American Type Culture Collection (ATCC) via LGC Standards, UK. A suspension of each organism was prepared from an overnight plate culture (tryptone soya agar) in phosphate-buffered saline (PBS) and adjusted to an absorbance reading at 600 nm of 0.1, which is approximately equivalent to 1 × 10^8 colony-forming units (CFU) per mL. The cultures were further diluted 1:100 in isosensitest broth (Oxoid, United Kingdom) before 100 μL was used to inoculate each well of a 96-well plate that contained diluted samples of the OSA series. Compounds were evaluated over a 2-fold dilution range from 32 to 0.03 μg/mL. Stocks of the samples were prepared in 100% DMSO at […] before being diluted in isosenstitest broth. The highest concentration of DMSO present was 2%, which has been previously shown not to inhibit the growth of the microorganisms (data not shown). […] Vancomycin was used as a quality control compound.

Experiment [2] relates to S. aureus ATCC 25923 (methicillin-susceptible). Put plainly: In vitro antibacterial activity, MIC (UCL), MSSA. It is filed as cell-based, Staphylococcus aureus. To be noted: Staphylococcus aureus. The procedure:
as §1

[3] abbreviates: UCL assay, read-out: MRSA MIC (ug/mL) (UCL).
Setting [4] is: UCL assay, read-out: MSSA MIC (ug/mL) (UCL).

≈ marks a conversion by molar mass, not a printed value. Read-outs that look alike come from different tables or passages of the source.

As to `c1ccc(-c2nc3n(c2-c2csc4ccccc24)CCC3)nc1` [OSA_000832], the MIC in experiment [1] (UCL, read-out: MRSA MIC (UCL)) stood at 8 µg/mL (≈ 25.2 µM).
Take `c1ccc(-c2nc3n(c2-c2ccc4cccnc4c2)CCC3)nc1` [OSA_000833]: the MIC in experiment [1] (UCL, read-out: MRSA MIC (UCL)) is over 32 µg/mL.
The same measure, in the same setting: the result for `c1ccc(-c2nc3n(c2-c2ccc4sccc4c2)CCC3)cc1` [OSA_000834] reads over 32 µg/mL; that for `c1ccc(-c2nc3n(c2-c2ccc4scnc4c2)CCC3)nc1` [OSA_000835], 32 µg/mL (≈ 101 µM).
Consider `Fc1ccc(Nc2c(-c3nccs3)nc3ccccn23)cc1` [OSA_001008], for which the MIC was over 32 µg/mL in experiment [1] (UCL, read-out: MRSA MIC (UCL)) and over 32 µg/mL in experiment [2] (read-out: MSSA MIC (UCL)).
As for `Fc1ccc(Nc2c(-c3ccc[nH]3)nc3ccccn23)cc1` [OSA_001009], the MIC is over 32 µg/mL in experiment [1] (UCL, read-out: MRSA MIC (UCL)) and over 32 µg/mL in experiment [2] (read-out: MSSA MIC (UCL)).
With `CC(C)CN(c1ccc(F)cc1)c1c(-c2nccs2)nc2ccccn12` [OSA_001010], the MIC was over 32 µg/mL in experiment [1] (UCL, read-out: MRSA MIC (UCL)) and over 32 µg/mL in experiment [2] (read-out: MSSA MIC (UCL)).
Take `CN1CCN(c2ccc(-c3c(-c4ccccn4)nc4ccccn34)cc2)CC1` [OSA_001012]: the MIC is over 32 µg/mL in experiment [1] (UCL, read-out: MRSA MIC (UCL)) and over 32 µg/mL in experiment [2] (read-out: MSSA MIC (UCL)).
With `Cc1ccc(-c2c(-c3ccccn3)nc3cc(C#N)ccn23)cc1` [OSA_001013], the MIC in experiment [1] (UCL, read-out: MRSA MIC (UCL)) was over 32 µg/mL; in experiment [2] (read-out: MSSA MIC (UCL)) it was over 32 µg/mL.
As to `Cc1ccc(-c2c(-c3ccccn3)nc3cc(N4CCNCC4)ccn23)cc1` [OSA_001014], the MIC is over 32 µg/mL in experiment [1] (UCL, read-out: MRSA MIC (UCL)) and over 32 µg/mL in experiment [2] (read-out: MSSA MIC (UCL)).
On to `Cc1ccc(-c2c(-c3ccccn3)nc3cc(C(N)=O)ccn23)cc1` [OSA_001015], for which the MIC in experiment [1] (UCL, read-out: MRSA MIC (UCL)) is over 32 µg/mL; in experiment [2] (read-out: MSSA MIC (UCL)) it was over 32 µg/mL.
For `N#Cc1ccc(C(=O)Nc2c(-c3ccccn3)nc3ccccn23)cc1` [OSA_001016], the MIC is over 32 µg/mL in experiment [1] (UCL, read-out: MRSA MIC (UCL)) and over 32 µg/mL in experiment [2] (read-out: MSSA MIC (UCL)).
On to `Cc1ccc(C(=O)Nc2c(-c3ccccn3)nc3ccccn23)cc1` [OSA_001017], for which the MIC in experiment [1] (UCL, read-out: MRSA MIC (UCL)) was over 32 µg/mL; in experiment [2] (read-out: MSSA MIC (UCL)), over 32 µg/mL.
As to `COc1ccc(-c2nc3ccccn3c2N(CC(C)C)c2ccc(F)cc2)nc1` [OSA_001034], the MIC in experiment [1] (setting [3]) turned out to be 8 µg/mL (≈ 20.5 µM).
On to `CC(C)CN(c1ccc(F)cc1)c1c(-c2ccccn2)nc2cnccn12` [OSA_001035], for which the MIC in experiment [1] (setting [3]) and in experiment [2] (setting [4]) was over 32 µg/mL throughout.
In the case of `CC(C)CN(c1ccc(F)cc1)c1c(-c2ccccn2)nc2cccnn12` [OSA_001036], the MIC in experiment [1] (setting [3]) and in experiment [2] (setting [4]) was 32 µg/mL (≈ 88.5 µM) in each case.
`CC(C)CN(c1ccc(F)cc1)c1c(-c2ccccn2)nc2ccc(S(C)(=O)=O)cn12` [OSA_001037]: the MIC in experiment [1] (setting [3]) and in experiment [2] (setting [4]) was over 32 µg/mL throughout.
For the molecule `CC(C)CN(c1ccc(F)cc1)c1c(-c2ccccn2)nc2ncccn12` [OSA_001038], the MIC in experiment [2] (setting [4]) was 8 µg/mL (≈ 22.1 µM).
With `CC(C)CN(c1ccc(F)cc1)c1c(-c2ccccn2)nc2ccncn12` [OSA_001039], the MIC in experiment [1] (setting [3]) and in experiment [2] (setting [4]) was over 32 µg/mL in each case.
On to `CC(C)CN(Cc1c(-c2ccccn2)nc2ccccn12)c1ccc(F)cc1` [OSA_001040], for which the results for the MIC in experiment [1] (setting [3]) and in experiment [2] (setting [4]) were 32 µg/mL (≈ 85.5 µM) and over 32 µg/mL, respectively.
Consider `N#Cc1ccc(-c2nc(-c3ccccn3)c[nH]2)cc1` [OSA_001102], for which the MIC in experiment [1] (setting [3]) and in experiment [2] (setting [4]) was over 32 µg/mL throughout.
As to `N#Cc1ccc(-c2c(-c3ccccn3)nc3cccnn23)cc1` [OSA_001103], the MIC in experiment [1] (setting [3]) and in experiment [2] (setting [4]) was over 32 µg/mL throughout.
In the case of `N#Cc1ccc(-c2c(-c3ccccn3)nc3ccccn23)cc1` [OSA_001104], the MIC in experiment [1] (setting [3]) and in experiment [2] (setting [4]) was over 32 µg/mL in each case.
For `N#Cc1ccc(-c2c(-c3ccccn3)nc3ncccn23)cc1` [OSA_001105], the MIC in experiment [1] (setting [3]) and in experiment [2] (setting [4]) was over 32 µg/mL throughout.
`N#Cc1ccc(-c2c(-c3ccccn3)nc3cnccn23)cc1` [OSA_001106]: the MIC in experiment [1] (setting [3]) and in experiment [2] (setting [4]) was over 32 µg/mL each time.
Regarding `N#Cc1ccc(-c2c(-c3ncccn3)nc3ccccn23)cc1` [OSA_001107], the MIC in experiment [1] (setting [3]) and in experiment [2] (setting [4]) was over 32 µg/mL throughout.
`c1ccc(-c2nc3n(c2-c2ccc4c(c2)OCO4)CCS3)nc1` [compound 813]: the “MRSA MIC” value in experiment [1] is recorded as 32 µg/mL.
`c1ccc(-c2nc3ccccn3c2-c2ccc3c(c2)OCO3)nc1` [compound 814]: in experiment [1] (read-out: MRSA MIC), the MIC was 32 µg/mL (≈ 101 µM).
Consider `c1ccc(-c2nc3ncccn3c2-c2ccc3c(c2)OCO3)nc1` [compound 815], for which the “MRSA MIC” value in experiment [1] was over 32 µg/mL.
The same measure, in the same setting: then `c1cncc(-c2nc3n(c2-c2ccc4c(c2)OCO4)CCC3)c1` [compound 816], with over 32 µg/mL.
